Results as given in publication PMC11106739, “Discovery and Derivatization of Tridecaptin Antibiotics with Altered Host Specificity and Enhanced Bioactivity” (ACS Chemical Biology, 2024).
Converted amounts (≈) assume the structure as drawn. Where a SMILES comes first, the peptide text is derived from it. [ ]: non-standard residue; d: D form. The star is where a group is joined. d(aIle) = CC[C@H](C)[C@@H](N)C(=O)O; dDab = NCC[C@@H](N)C(=O)O; Octanoyl = CCCCCCCC(=O)*; Dab = NCC[C@H](N)C(=O)O

Tests used:
ATCC 25922 = assay type: cell-based, Enterococcus faecalis; conditions: ATCC 25922, 20 h
How it was run: (§1)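 CLSI broth microdilution; CAMHB; test range 0.06–64 μg/mL final; inoculum ~2 × 10^5 CFU/mL from 0.5 McFarland colony suspension diluted 200-fold; 20 h, 35 °C; visual MIC read.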

E. faecalis ATCC 29212 = assay type: cell-based, Enterococcus faecalis; conditions: ATCC 29212, 20 h
How it was run: as §1

S. aureus ATCC 29213 [1] = assay type: cell-based, Staphylococcus aureus; conditions: ATCC 29213, 20 h
How it was run: as §1

S. aureus 1126387 = assay type: cell-based, Staphylococcus aureus; conditions: 1126387, 20 h
How it was run: as §1

S. aureus UAMS-1625 = assay type: cell-based, Staphylococcus aureus; conditions: S. aureus UAMS-1625 (BV18); CLSI broth dilution, cation-adjusted Mueller Hinton broth, 20 h, 35 °C, read visually
How it was run: as §1

K. pneumoniae ATCC 13883 = assay type: cell-based, Klebsiella pneumoniae; conditions: ATCC 13883, 20 h
How it was run: as §1

K. pneumoniae 1227947 = assay type: cell-based, Klebsiella pneumoniae; conditions: 1227947, 20 h
How it was run: as §1

K. pneumoniae 1228586 = assay type: cell-based, Klebsiella pneumoniae; conditions: 1228586, 20 h
How it was run: as §1

E. faecium IHMA 890472 = assay type: cell-based, Enterococcus faecium; conditions: IHMA 890472, 20 h
How it was run: as §1

E. faecium ATCC 51559 = assay type: cell-based, Enterococcus faecium; conditions: ATCC 51559, 20 h
How it was run: as §1

E. coli ATCC 25922 = assay type: cell-based, Escherichia coli; conditions: ATCC 25922, 20 h
How it was run: as §1

E. coli 1220120 = assay type: cell-based, Escherichia coli; conditions: 1220120, 20 h
How it was run: as §1

E. coli 1214245 = assay type: cell-based, Escherichia coli; conditions: 1214245, 20 h
How it was run: as §1

A. baumannii IHMA 777621 = assay type: cell-based, Acinetobacter baumannii; conditions: IHMA 777621, 20 h
How it was run: as §1

A. baumannii HUMC1 = assay type: cell-based, Acinetobacter baumannii; conditions: HUMC1, 20 h
How it was run: as §1

A. baumannii ATCC 17978 = assay type: cell-based, Acinetobacter baumannii; conditions: ATCC 17978, 20 h
How it was run: as §1

S. aureus ATCC 29213 [2] = assay: LIVE/DEAD staining (SYTO 9 / propidium iodide); assay type: cell-based, Staphylococcus aureus; conditions: S. aureus ATCC 29213, 1 × MIC, 15 min, microscopy
Protocol: This assay was performed according to a previously described procedure.[55],[56] Briefly, overnight cultures of E. coli ATCC 25922 and S. aureus ATCC 29213 were diluted to an OD600 of 0.2 in MHB and mixed with 1 × MIC of Oct-TriA1, Oct-TriA5, and Oct-TriD. Nisin and polymyxin B were used as positive controls at a concentration of 2-fold MIC. At the same time, green fluorescent nucleic acid stain SYTO 9 (excitation, 450–490 nm; emission, 500–550 nm) and red fluorescent nucleic acid stain propidium iodide (excitation, 574–599 nm; emission, 612–682 nm) (LIVE/DEAD Baclight Bacterial Viability Kit, Invitrogen) were added to the above cell suspensions. After mixing and incubating for 15 min in the dark at RT, cells were briefly sedimented via centrifugation and resuspended in fresh MHB. Then, the cell suspensions were loaded on 1.5% agarose pads and analyzed by a Zeiss Imager M2 microscope. Confocal images were obtained at 4 random locations for each sample and visualized using FIJI version 1.51H.[57]

P. aeruginosa PAO1 = assay type: cell-based, Pseudomonas aeruginosa; conditions: PAO1, 20 h
How it was run: as §1

P. aeruginosa 1218019 = assay type: cell-based, Pseudomonas aeruginosa; conditions: 1218019, 20 h
How it was run: as §1

P. aeruginosa 1226072 = assay type: cell-based, Pseudomonas aeruginosa; conditions: 1226072, 20 h
How it was run: as §1

S. aureus USA300 (MRSA) = assay type: cell-based, Staphylococcus aureus; conditions: USA300, 18 h
[3] = test system: Gram-positive lipid II / S. aureus USA300 (MRSA); assay: Lipid II antagonization assay; assay type: cell-based, Staphylococcus aureus; conditions: compound at 8x MIC, 5-fold molar excess of Gram-positive lipid II, MHB with 0.002% polysorbate-80, 37 °C, 18 h, resazurin, triplicates
Protocol: Laboratory Institute (CLSI) guidelines. Gram-positive lipid II, containing lysine at position 3 of the pentapeptide, was prepared by total chemical synthesis.1,2 Lipid II in 1 : 1 chloroform : methanol (v/v) was added to a polypropylene 96-well plate (5-fold molar excess compared to test antibiotics) and the organic solvent was allowed to evaporate. Oct-TriA5 and vancomycin in MHB (50 µL, 16xMIC) were added to the wells with the 5-fold molar excess of pure Gram-positive lipid II in triplicates and to the control wells without lipid II. Single colony of S. aureus USA300 (MRSA) from a fresh blood agar plate was suspended in TSB and grown to an OD600 of 0.5. The bacterial culture then was diluted in MHB with 0.002% polysorbate-80 to reach 10^6 CFU/mL and 50 µL were mixed with test compounds to achieve the final concentration of 8xMIC for all tested compounds. The plate was incubated at 37°C for 18 h with constant shaking (600 rpm) and subsequently inspected for visible bacterial growth. To visualize the viability of the indicator strain, resazurin sodium salt solution (Merck, Dorset, UK) was added to the cultures to achieve the final concentration of 0.0015% (w/v) and incubated at RT for 1 h.
Figure S4. HPLC trace showing the reinjection of purified Oct-TriD (3). The peptide eluted as a single peak at 17.263 min using the HPLC method A.
Figure S5. […]

[4] = test system: Gram-negative ESKAPE pathogens; assay type: cell-based; conditions: 20 h
Protocol: All minimum inhibitory concentrations (MICs) were determined according to the Clinical and Standards Laboratory Institute (CLSI) guidelines. In brief, agar plates were inoculated from glycerol stocks and incubated overnight at 35 °C. Peptide DMSO stocks were dispensed into 96-well round-bottom plates using a TECAN D300e dispenser. Colistin sulfate (Sigma-Aldrich) was dissolved in water and serially diluted in a cation-adjusted Mueller Hinton broth (10 μL per well). Final concentrations of the test compounds were 0.06 to 64 μg/mL. Inocula were prepared by direct colony suspension in NaCl at 0.5 MacFarland, which was further diluted 200-fold in cation-adjusted Mueller Hinton broth for a target inoculum of 2 × 10^5 colony forming units (CFUs)/mL. 100 μL portion of the prepared inoculum was added to each well of the prepared plates containing the test compounds. Plates were sealed with parafilm and incubated for 20 h at 35 °C. Images of all plates were recorded, and MIC was assessed visually.

Row | SMILES | MIC (ATCC 25922) [µg/mL] | MIC (E. faecalis ATCC 29212) [µg/mL] | MIC (S. aureus ATCC 29213 [1]) [µg/mL] | MIC (S. aureus 1126387) [µg/mL] | MIC (S. aureus UAMS-1625) [µg/mL] | MIC (K. pneumoniae ATCC 13883) [µg/mL] | MIC (K. pneumoniae 1227947) [µg/mL] | MIC (K. pneumoniae 1228586) [µg/mL] | MIC (E. faecium IHMA 890472) [µg/mL] | MIC (E. faecium ATCC 51559) [µg/mL] | MIC (E. coli ATCC 25922) [µg/mL] | MIC (E. coli 1220120) [µg/mL] | MIC (E. coli 1214245) [µg/mL] | MIC (A. baumannii IHMA 777621) [µg/mL] | MIC (A. baumannii HUMC1) [µg/mL] | MIC (A. baumannii ATCC 17978) [µg/mL] | LIVE/DEAD staining, membrane integrity of S. aureus cells (S. aureus ATCC 29213 [2]) | MIC (P. aeruginosa PAO1) [µg/mL] | MIC (P. aeruginosa 1218019) [µg/mL] | MIC (P. aeruginosa 1226072) [µg/mL] | further results
1 | CCCCCCCC(=O)N[C@@H](C(=O)N[C@H](CCN)C(=O)NCC(=O)N[C@H](CO)C(=O)N[C@H](Cc1c[nH]c2ccccc12)C(=O)N[C@@H](CO)C(=O)N[C@@H](CCN)C(=O)N[C@H](CCN)C(=O)N[C@@H](Cc1ccccc1)C(=O)N[C@@H](CCC(=O)O)C(=O)N[C@H](C(=O)N[C@@H](C(=O)N[C@@H](C)C(=O)O)[C@@H](C)CC)C(C)C)C(C)C [Oct-TriA1] (Octanoyl-[dV][dDab]G[dS][dW]S[Dab][dDab]FEV[d(aIle)]A-OH) | 32 (≈ 21 µM) | 32 (≈ 21 µM) | 32 (≈ 21 µM) | 32 (≈ 21 µM) | 32 (≈ 21 µM) | 4 (≈ 2.63 µM) | 4 (≈ 2.63 µM) | 4 (≈ 2.63 µM) | 16 (≈ 10.5 µM) | 32 (≈ 21 µM) | 2 (≈ 1.32 µM) | 2 (≈ 1.32 µM) | 2 (≈ 1.32 µM) | 8 (≈ 5.26 µM) | 16 (≈ 10.5 µM) | 8 (≈ 5.26 µM) | still alive | 64 (≈ 42.1 µM) | 4 (≈ 2.63 µM) | 8 (≈ 5.26 µM) | –
2 | CCCCCCCC(=O)N[C@@H](C(=O)N[C@H](CCN)C(=O)NCC(=O)N[C@H](CO)C(=O)N[C@H](Cc1c[nH]c2ccccc12)C(=O)N[C@@H](CO)C(=O)N[C@@H](CCN)C(=O)N[C@H](CCN)C(=O)N[C@@H](Cc1c[nH]c2ccccc12)C(=O)N[C@@H](CCC(=O)O)C(=O)N[C@H](C(=O)N[C@@H](C(=O)N[C@@H](C)C(=O)O)[C@@H](C)CC)C(C)C)C(C)C [Oct-TriA5] (Octanoyl-[dV][dDab]G[dS][dW]S[Dab][dDab]WEV[d(aIle)]A-OH) | 8 (≈ 5.13 µM) | 8 (≈ 5.13 µM) | 8 (≈ 5.13 µM) | 8 (≈ 5.13 µM) | 8 (≈ 5.13 µM) | 4 (≈ 2.56 µM) | 4 (≈ 2.56 µM) | 4 (≈ 2.56 µM) | 8 (≈ 5.13 µM) | 8 (≈ 5.13 µM) | 2 (≈ 1.28 µM) | 4 (≈ 2.56 µM) | 4 (≈ 2.56 µM) | 4 (≈ 2.56 µM) | 8 (≈ 5.13 µM) | 4 (≈ 2.56 µM) | had lysed | 16 (≈ 10.3 µM) | 4 (≈ 2.56 µM) | 8 (≈ 5.13 µM) | MIC (S. aureus USA300 (MRSA)): 8 µg/mL (≈ 5.13 µM); growth of S. aureus USA300 (MRSA) after addition of lipid II [3]: not inhibited; MICs, range over Gram-negative pathogens [4]: 2 to 16 µg/mL
3 | CCCCCCCC(=O)N[C@H](Cc1ccccc1)C(=O)N[C@H](CCN)C(=O)N[C@@H](C(=O)N[C@H](CO)C(=O)N[C@H](Cc1c[nH]c2ccccc12)C(=O)N[C@@H](CO)C(=O)N[C@@H](CO)C(=O)N[C@H](CCN)C(=O)N[C@@H](Cc1c[nH]c2ccccc12)C(=O)N[C@@H](CO)C(=O)N[C@H](C(=O)N[C@@H](C(=O)N[C@@H](CCN)C(=O)O)[C@@H](C)CC)C(C)C)[C@H](C)CC [Oct-TriD] (Octanoyl-[dF][dDab][dI][dS][dW]SS[dDab]WSV[d(aIle)][Dab]-OH) | 8 (≈ 4.88 µM) | 8 (≈ 4.88 µM) | 8 (≈ 4.88 µM) | 16 (≈ 9.77 µM) | 16 (≈ 9.77 µM) | 8 (≈ 4.88 µM) | >64 | 64 (≈ 39.1 µM) | 4 (≈ 2.44 µM) | 4 (≈ 2.44 µM) | 32 (≈ 19.5 µM) | 16 (≈ 9.77 µM) | 16 (≈ 9.77 µM) | 8 (≈ 4.88 µM) | 16 (≈ 9.77 µM) | 16 (≈ 9.77 µM) | had lysed | >64 | 32 (≈ 19.5 µM) | 32 (≈ 19.5 µM) | –
4 | CN[C@H](CC(C)C)C(=O)N[C@H]1C(=O)N[C@@H](CC(N)=O)C(=O)N[C@H]2C(=O)N[C@H]3C(=O)N[C@H](C(=O)N[C@H](C(=O)O)c4cc(O)cc(O)c4-c4cc3ccc4O)[C@H](O)c3ccc(c(Cl)c3)Oc3cc2cc(c3O[C@@H]2O[C@H](CO)[C@@H](O)[C@H](O)[C@H]2O[C@H]2C[C@](C)(N)[C@H](O)[C@H](C)O2)Oc2ccc(cc2Cl)[C@H]1O [vancomycin, reference compound] | – | – | – | – | – | – | – | – | – | – | – | – | – | – | – | – | – | – | – | – | growth of S. aureus USA300 (MRSA) after addition of lipid II [3]: not inhibited
